# According to patent US10308644B2, “Heterocyclic compounds as immunomodulators” (Incyte Corporation, priority 2016, dated 2019):
# Molecular target: PD-1/PD-L1 (Homo sapiens (Human), UniProt Q9NZQ7)
# Assay: PD-1/PD-L1 Homogeneous Time-Resolved Fluorescence (HTRF) Binding Assay
# Conditions: recombinant human PD-1 (3 nM) and PD-L1 (10 nM), 25° C., PBS pH 7.4
# Method in brief: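 Fc-tagged human PD-1 (25-167, 3 nM) and His-tagged PD-L1 (19-238, 10 nM) preincubated with inhibitor 40 min in PBS pH 7.4, 0.05% Tween-20, 0.1% BSA, 1% DMSO, 25 °C. Binding detected by HTRF (Eu anti-IgG/APC anti-His, 665/620 nm) after 60 min; IC50 from percent control activity.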
# Chain of PD-1/PD-L1 (Q9NZQ7 19-238): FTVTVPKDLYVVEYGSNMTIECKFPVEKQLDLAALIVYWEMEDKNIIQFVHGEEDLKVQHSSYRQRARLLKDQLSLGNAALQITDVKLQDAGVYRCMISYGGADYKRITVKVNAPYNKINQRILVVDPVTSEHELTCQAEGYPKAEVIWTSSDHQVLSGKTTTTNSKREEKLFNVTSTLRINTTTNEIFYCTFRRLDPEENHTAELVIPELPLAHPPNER
row,IC50,Structure (SMILES)
1,≤ 10 nM,"Cc1c(-c2nc3cc(CN4CC5(CC(C(=O)O)C5)C4)cc(C#N)c3o2)cccc1-c1cccc(-c2nc3c(s2)CN(C(=O)CN(C)[C@@H](C)CO)C3)c1C [Example 232, 2-((7-cyano-2-(3′-(5-(2-(((S)-1-hydroxypropan-2-yl)(methyl)amino)acetyl)-5,6-dihydro-4H-pyrrolo[3,4-d]thiazol-2-yl)-2,2′-dimethylbiphenyl-3-yl)benzo[d]oxazol-5-yl)methyl)-2-azaspiro[3.3]heptane-6-carboxylic acid]"
2,≤ 10 nM,"CNC(=O)[C@@H]1CCN(Cc2cc(C#N)c3oc(-c4cccc(-c5cccc(-c6nc7c(s6)CN(C(C)C)CC7)c5C)c4C)nc3c2)C1 [Example 117, (R)-1-((7-cyano-2-(3′-(5-isopropyl-4,5,6,7-tetrahydrothiazolo[5,4-c]pyridin-2-yl)-2,2′-dimethyl-[1,1′-biphenyl]-3-yl)benzo[d]oxazol-5-yl)methyl)-N-methylpyrrolidine-3-carboxamide]"
3,≤ 10 nM,"CCN(CCO)C1CCN(c2cccc(-c3cccc(-c4nc5cc(CN6CC[C@@H](C(=O)O)C6)cc(C#N)c5o4)c3C)c2Cl)CC1 [Example 48, (R)-1-((2-(2′-chloro-3′-(4-(ethyl(2-hydroxyethyl)amino)piperidin-1-yl)-2-methylbiphenyl-3-yl)-7-cyanobenzo[d]oxazol-5-yl)methyl)pyrrolidine-3-carboxylic acid]"
4,≤ 10 nM,"Cc1c(-c2nc3cc(CN4CCC(C(=O)O)CC4)cc(C#N)c3o2)cccc1-c1cccc(NC(=O)c2nc3c(n2C)CC(C)NC3)c1Cl (stereo not shown) [Example 164, 1-((2-(2′-chloro-3′-(1,6-dimethyl-4,5,6,7-tetrahydro-1H-imidazo[4,5-c]pyridine-2-carboxamido)-2-methylbiphenyl-3-yl)-7-cyanobenzo[d]oxazol-5-yl)methyl)piperidine-4-carboxylic acid]"
5,≤ 10 nM,"Cc1c(Nc2nccc3cc(CN4CC[C@@H](C(=O)O)C4)cnc23)cccc1-c1cccc(-c2nc3cc(CNC[C@H](C)O)cc(C#N)c3o2)c1C [Example 210, (R)-1-((8-(3′-(7-cyano-5-(((S)-2-hydroxypropylamino)methyl)benzo[d]oxazol-2-yl)-2,2′-dimethylbiphenyl-3-ylamino)-1,7-naphthyridin-3-yl)methyl)pyrrolidine-3-carboxylic acid]"
6,≤ 10 nM,"Cc1c(Nc2nccc3cc(C4CN(CCO)C4)cnc23)cccc1-c1cccc(-c2nc3cc(CN4CC[C@@H](C(=O)O)C4)cc(C#N)c3o2)c1C [Example 96, (R)-1-((7-cyano-2-(3′-(3-(1-(2-hydroxyethyl)azetidin-3-yl)-1,7-naphthyridin-8-ylamino)-2,2′-dimethylbiphenyl-3-yl)benzo[d]oxazol-5-yl)methyl)pyrrolidine-3-carboxylic acid]"
7,≤ 10 nM,"Cc1c(Nc2nccc3cc(CN4CCC(C(=O)O)CC4)cnc23)cccc1-c1cccc(-c2nc3cc(CN[C@@H](C)CO)cc(C#N)c3o2)c1C [Example 213, (S)-1-((8-(3′-(7-cyano-5-((1-hydroxypropan-2-ylamino)methyl)benzo[d]oxazol-2-yl)-2,2′-dimethylbiphenyl-3-ylamino)1,7-naphthyridin-3-yl)methyl)piperidine-4-carboxylic acid]"
